Article PMC9127186, “Molecular Basis Underlying Hepatobiliary and Renal Excretion of Phenolic Acids of Salvia miltiorrhiza Roots (Danshen)” (Frontiers in Pharmacology, 2022)

Experiments:
[1] = tested on: OATP1B1; set-up: method as in Li et al., 2019; conditions: ref Li et al., 2019; read-out: half maximum inhibitory concentration (IC50) for OATP1B1; cited from earlier work
[2] = target: T1, rat Oct3 (Rattus norvegicus, UniProt O88446)
T1 sequence (O88446 1-551): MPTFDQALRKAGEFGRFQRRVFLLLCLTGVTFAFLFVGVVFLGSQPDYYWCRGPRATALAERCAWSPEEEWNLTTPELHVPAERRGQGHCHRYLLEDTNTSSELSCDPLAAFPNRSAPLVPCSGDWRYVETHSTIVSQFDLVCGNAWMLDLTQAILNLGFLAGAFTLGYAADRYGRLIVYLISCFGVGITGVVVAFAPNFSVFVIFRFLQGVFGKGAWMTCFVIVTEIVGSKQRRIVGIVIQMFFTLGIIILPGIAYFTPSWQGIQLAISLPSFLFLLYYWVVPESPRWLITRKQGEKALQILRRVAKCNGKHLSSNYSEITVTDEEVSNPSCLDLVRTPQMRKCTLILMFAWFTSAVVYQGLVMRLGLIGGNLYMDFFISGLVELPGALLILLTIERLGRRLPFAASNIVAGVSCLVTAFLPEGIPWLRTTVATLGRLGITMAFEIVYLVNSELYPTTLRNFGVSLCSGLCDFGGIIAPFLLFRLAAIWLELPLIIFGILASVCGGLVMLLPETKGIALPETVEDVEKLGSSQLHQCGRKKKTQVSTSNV

[3] = target: T2, rat Octn2 (Rattus norvegicus, UniProt O70594); conditions: 10 min, 100 μM
T2 sequence (O70594 1-557): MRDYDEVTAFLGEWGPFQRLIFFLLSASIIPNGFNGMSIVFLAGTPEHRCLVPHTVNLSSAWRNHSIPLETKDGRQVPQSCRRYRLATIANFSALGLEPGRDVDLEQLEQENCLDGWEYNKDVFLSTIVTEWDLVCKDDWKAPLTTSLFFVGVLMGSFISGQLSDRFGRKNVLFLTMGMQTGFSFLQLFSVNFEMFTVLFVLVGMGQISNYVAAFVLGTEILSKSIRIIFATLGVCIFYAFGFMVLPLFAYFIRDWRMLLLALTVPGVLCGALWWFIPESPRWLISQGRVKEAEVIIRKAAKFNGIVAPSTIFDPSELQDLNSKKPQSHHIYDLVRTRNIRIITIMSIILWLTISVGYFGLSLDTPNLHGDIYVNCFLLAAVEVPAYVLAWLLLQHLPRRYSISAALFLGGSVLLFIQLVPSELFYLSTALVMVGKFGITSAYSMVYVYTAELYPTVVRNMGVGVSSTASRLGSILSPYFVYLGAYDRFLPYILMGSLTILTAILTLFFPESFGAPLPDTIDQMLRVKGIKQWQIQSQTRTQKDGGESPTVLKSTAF

[4] = target: T3, human OCT1 (Homo sapiens, UniProt O15245); conditions: 10 min, 100 μM
T3 sequence (O15245 1-554): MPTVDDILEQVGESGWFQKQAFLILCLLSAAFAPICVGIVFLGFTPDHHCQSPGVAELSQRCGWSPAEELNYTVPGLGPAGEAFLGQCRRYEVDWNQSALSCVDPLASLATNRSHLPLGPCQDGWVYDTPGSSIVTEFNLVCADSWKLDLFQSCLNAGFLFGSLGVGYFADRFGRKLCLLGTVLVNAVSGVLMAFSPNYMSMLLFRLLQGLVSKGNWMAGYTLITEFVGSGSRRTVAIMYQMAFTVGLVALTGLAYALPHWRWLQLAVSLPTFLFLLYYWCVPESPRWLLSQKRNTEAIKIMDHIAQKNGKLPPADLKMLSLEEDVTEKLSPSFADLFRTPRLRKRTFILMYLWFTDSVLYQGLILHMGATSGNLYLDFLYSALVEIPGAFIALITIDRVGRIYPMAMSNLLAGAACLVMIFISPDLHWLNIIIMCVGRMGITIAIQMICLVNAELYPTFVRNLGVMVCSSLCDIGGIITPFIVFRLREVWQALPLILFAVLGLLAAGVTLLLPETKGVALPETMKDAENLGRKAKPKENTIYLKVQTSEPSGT

[5] = target: T4, human OCT3 (Homo sapiens, UniProt O75751)
T4 sequence (O75751 1-556): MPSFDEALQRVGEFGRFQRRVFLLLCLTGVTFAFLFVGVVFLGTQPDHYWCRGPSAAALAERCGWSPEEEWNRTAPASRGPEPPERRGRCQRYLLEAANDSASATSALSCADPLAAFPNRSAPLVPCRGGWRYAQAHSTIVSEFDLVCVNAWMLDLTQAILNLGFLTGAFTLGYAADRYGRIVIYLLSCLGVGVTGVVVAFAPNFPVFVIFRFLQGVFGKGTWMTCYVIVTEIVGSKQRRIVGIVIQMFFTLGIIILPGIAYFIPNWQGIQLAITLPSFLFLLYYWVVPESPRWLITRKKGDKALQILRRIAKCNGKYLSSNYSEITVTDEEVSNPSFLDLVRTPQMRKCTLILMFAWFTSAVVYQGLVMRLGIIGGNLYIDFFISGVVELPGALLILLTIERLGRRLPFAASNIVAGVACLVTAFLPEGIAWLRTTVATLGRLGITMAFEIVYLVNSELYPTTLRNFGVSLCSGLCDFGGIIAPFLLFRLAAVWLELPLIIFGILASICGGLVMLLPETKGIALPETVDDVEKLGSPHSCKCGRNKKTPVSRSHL

[6] = target: T5, human NTCP (Homo sapiens, UniProt Q14973); conditions: 10 min, 100 μM
T5 sequence (Q14973 1-349): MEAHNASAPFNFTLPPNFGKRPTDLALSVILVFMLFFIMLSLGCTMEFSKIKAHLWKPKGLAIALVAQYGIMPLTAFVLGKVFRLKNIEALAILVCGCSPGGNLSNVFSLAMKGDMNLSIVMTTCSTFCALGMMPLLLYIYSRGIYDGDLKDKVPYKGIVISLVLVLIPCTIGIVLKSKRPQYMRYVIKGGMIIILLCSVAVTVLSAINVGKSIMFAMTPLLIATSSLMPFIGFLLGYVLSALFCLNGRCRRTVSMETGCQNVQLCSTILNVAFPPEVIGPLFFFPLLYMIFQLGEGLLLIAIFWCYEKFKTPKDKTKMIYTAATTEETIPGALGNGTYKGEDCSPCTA

| Compound | IC50 [1] | TransportTC/TransportMC ratio (net transport ratio) [2] | TransportTC/TransportMC ratio (net transport ratio) [3] | TransportTC/TransportMC ratio (net transport ratio) [4] | TransportTC/TransportMC ratio (net transport ratio) [5] | TransportTC/TransportMC ratio (net transport ratio) [6] |
| --- | --- | --- | --- | --- | --- | --- |
| salvianolic acid B | 38 µM |  |  |  |  |  |
| O=C(/C=C/c1ccc(O)c(O)c1/C=C/c1ccc(O)c(O)c1)O[C@H](Cc1ccc(O)c(O)c1)C(=O)O [Salvianolic acid A, salvianolic acid A] |  | 1.19 ± 0.14 | 0.95 ± 0.44 | 1.04 ± 0.32 | 1.31 ± 0.09 | 0.93 ± 0.11 |
| O=C(/C=C/c1ccc(O)c(O)c1)O[C@H](Cc1ccc(O)c(O)c1)C(=O)O [Rosmarinic acid, rosmarinic acid] |  |  | 1.14 ± 0.04 | 1.46 ± 0.57 |  | 2.76 ± 0.36 |
